# Legend:
# [1] = target: Signal transducer and activator of transcription 1-alpha/beta (Homo sapiens, UniProt P42224); experiment: Inhibition of SH2 domain of STAT1 (unknown origin) using FITC-GpYDKPHVL as substrate preincubated for 15 mins before substrate addition measured after 90 mins by alphascreen based assay
# CCRF-CEM = experiment: Cytotoxicity against human CCRF-CEM cells after 48 hrs by sulforhodamine B assay; assay type: functional
# RPMI-8226 = experiment: Cytotoxicity against human RPMI8226 cells after 48 hrs by sulforhodamine B assay; assay type: functional; details: RPMI-8226, 48 h
# SR = experiment: Cytotoxicity against human SR cells after 48 hrs by sulforhodamine B assay; assay type: functional
# A549 = experiment: Cytotoxicity against human A549 cells after 48 hrs by sulforhodamine B assay; assay type: functional; details: A549, 48 h
# [2] = Cytotoxicity against human EKVX cells after 48 hrs by sulforhodamine B assay; assay type: functional
# NCI-H322M = experiment: Cytotoxicity against human NCI-H322M cells after 48 hrs by sulforhodamine B assay; assay type: functional
# COLO 205 = experiment: Cytotoxicity against human COLO205 cells after 48 hrs by sulforhodamine B assay; assay type: functional; details: COLO 205, 48 h
# HT-29 = experiment: Cytotoxicity against human HT-29 cells after 48 hrs by sulforhodamine B assay; assay type: functional; details: HT-29, 48 h
# SF-268 = experiment: Cytotoxicity against human SF268 cells after 48 hrs by sulforhodamine B assay; assay type: functional; details: SF-268, 48 h
# SF-295 = experiment: Cytotoxicity against human SF295 cells after 48 hrs by sulforhodamine B assay; assay type: functional; details: SF-295, 48 h
# SF-539 = experiment: Cytotoxicity against human SF539 cells after 48 hrs by sulforhodamine B assay; assay type: functional; details: SF-539, 48 h
# Malme-3M = experiment: Cytotoxicity against human MALME-3M cells after 48 hrs by sulforhodamine B assay; assay type: functional
# SK-MEL-2 = experiment: Cytotoxicity against human SK-MEL-2 cells after 48 hrs by sulforhodamine B assay; assay type: functional; details: SK-MEL-2, 48 h
# SK-MEL-28 = experiment: Cytotoxicity against human SK-MEL-28 cells after 48 hrs by sulforhodamine B assay; assay type: functional; details: SK-MEL-28, 48 h
# [3] = Cytotoxicity against human UACC257 cells after 48 hrs by sulforhodamine B assay; assay type: functional; details: UACC-257, 48 h
# SK-OV-3 = experiment: Cytotoxicity against human SKOV3 cells after 48 hrs by sulforhodamine B assay; assay type: functional; details: SK-OV-3, 48 h
# A498 = experiment: Cytotoxicity against human A498 cells after 48 hrs by sulforhodamine B assay; assay type: functional; details: A498, 48 h
# TK-10 = experiment: Cytotoxicity against human TK10 cells after 48 hrs by sulforhodamine B assay; assay type: functional; details: TK-10, 48 h
# PC-3 = experiment: Cytotoxicity against human PC3 cells after 48 hrs by sulforhodamine B assay; assay type: functional; details: PC-3, 48 h
# BT-549 = experiment: Cytotoxicity against human BT549 cells after 48 hrs by sulforhodamine B assay; assay type: functional; details: BT-549, 48 h
# [4] = read-out: LC50 (the source's name)
# [5] = read-out: pLC50 (the source's name) (converted)
# Signal transducer and activator of transcription 1-alpha/beta, sequence (P42224 whole entry, the tested form may be a part): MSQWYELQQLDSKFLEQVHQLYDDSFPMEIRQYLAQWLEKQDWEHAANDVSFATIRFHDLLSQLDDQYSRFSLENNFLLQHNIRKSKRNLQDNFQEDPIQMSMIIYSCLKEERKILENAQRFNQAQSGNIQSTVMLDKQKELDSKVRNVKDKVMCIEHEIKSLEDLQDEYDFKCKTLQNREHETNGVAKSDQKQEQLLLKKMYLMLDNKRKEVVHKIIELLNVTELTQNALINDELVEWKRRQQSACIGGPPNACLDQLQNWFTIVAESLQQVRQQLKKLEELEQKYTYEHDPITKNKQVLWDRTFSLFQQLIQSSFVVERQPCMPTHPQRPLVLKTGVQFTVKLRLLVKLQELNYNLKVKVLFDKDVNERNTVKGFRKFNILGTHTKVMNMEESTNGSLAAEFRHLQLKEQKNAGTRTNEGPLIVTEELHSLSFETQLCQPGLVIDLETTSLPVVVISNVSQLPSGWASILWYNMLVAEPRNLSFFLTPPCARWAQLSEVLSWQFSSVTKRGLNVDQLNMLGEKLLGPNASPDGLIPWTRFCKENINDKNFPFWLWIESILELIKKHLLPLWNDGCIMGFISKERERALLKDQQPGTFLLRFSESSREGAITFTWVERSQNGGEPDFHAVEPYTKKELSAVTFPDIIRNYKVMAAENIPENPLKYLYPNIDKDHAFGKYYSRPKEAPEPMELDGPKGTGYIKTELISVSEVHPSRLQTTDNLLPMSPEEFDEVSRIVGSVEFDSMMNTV
compound,measurement,setting,value
O=C(Nc1nonc1-c1ccc(Cl)cc1)c1ccc(C(F)(F)F)cc1,IC50,[1],7.2 µM
same,GI50,CCRF-CEM; read-out: GI50,0.842 µM
same,CC50,CCRF-CEM; [4],> 100 µM
same,TGI,CCRF-CEM; read-out: TGI,10.7 µM
same,GI50,CCRF-CEM; read-out: pGI50 (converted),0.851 µM
same,CC50,CCRF-CEM; [5],> 100 µM
same,TGI,CCRF-CEM; read-out: pTGI (converted),10.7 µM
same,GI50,RPMI-8226; read-out: GI50,1.05 µM
same,CC50,RPMI-8226; [4],> 100 µM
same,TGI,RPMI-8226; read-out: TGI,5.89 µM
same,GI50,RPMI-8226; read-out: pGI50 (converted),1.05 µM
same,CC50,RPMI-8226; [5],> 100 µM
same,TGI,RPMI-8226; read-out: pTGI (converted),5.89 µM
same,GI50,SR; read-out: GI50,2.85 µM
same,CC50,SR; [4],> 100 µM
same,TGI,SR; read-out: TGI,10.6 µM
same,GI50,SR; read-out: pGI50 (converted),2.82 µM
same,CC50,SR; [5],> 100 µM
same,TGI,SR; read-out: pTGI (converted),10.7 µM
same,GI50,A549; read-out: GI50,2.53 µM
same,CC50,A549; [4],> 100 µM
same,TGI,A549; read-out: TGI,> 100 µM
same,GI50,A549; read-out: pGI50 (converted),2.51 µM
same,CC50,A549; [5],> 100 µM
same,TGI,A549; read-out: pTGI,> 100 µM
same,GI50,[2]; read-out: GI50,3.4 µM
same,CC50,[2]; [4],> 100 µM
same,TGI,[2]; read-out: TGI,33.6 µM
same,GI50,[2]; read-out: pGI50 (converted),3.39 µM
same,CC50,[2]; [5],> 100 µM
same,TGI,[2]; read-out: pTGI (converted),33.9 µM
same,GI50,NCI-H322M; read-out: GI50,1.78 µM
same,CC50,NCI-H322M; [4],> 100 µM
same,TGI,NCI-H322M; read-out: TGI,> 100 µM
same,GI50,NCI-H322M; read-out: pGI50 (converted),1.78 µM
same,CC50,NCI-H322M; [5],> 100 µM
same,TGI,NCI-H322M; read-out: pTGI,> 100 µM
same,GI50,COLO 205; read-out: GI50,3.8 µM
same,CC50,COLO 205; [4],41.3 µM
same,TGI,COLO 205; read-out: TGI,12 µM
same,GI50,COLO 205; read-out: pGI50 (converted),3.8 µM
same,CC50,COLO 205; [5],41.7 µM
same,TGI,COLO 205; read-out: pTGI (converted),12 µM
same,GI50,HT-29; read-out: GI50,3.23 µM
same,CC50,HT-29; [4],> 100 µM
same,TGI,HT-29; read-out: TGI,> 100 µM
same,GI50,HT-29; read-out: pGI50 (converted),3.24 µM
same,CC50,HT-29; [5],> 100 µM
same,TGI,HT-29; read-out: pTGI,> 100 µM
same,GI50,SF-268; read-out: GI50,1.81 µM
same,LC50,SF-268; read-out: LC50,> 100 µM
same,TGI,SF-268; read-out: TGI,> 100 µM
same,GI50,SF-268; read-out: pGI50 (converted),1.82 µM
same,LC50,SF-268; read-out: pLC50 (converted),> 100 µM
same,TGI,SF-268; read-out: pTGI,> 100 µM
same,GI50,SF-295; read-out: GI50,1.02 µM
same,CC50,SF-295; [4],43.4 µM
same,TGI,SF-295; read-out: TGI,3.72 µM
same,GI50,SF-295; read-out: pGI50 (converted),1.02 µM
same,CC50,SF-295; [5],> 100 µM
same,TGI,SF-295; read-out: pTGI (converted),3.72 µM
same,GI50,SF-539; read-out: GI50,3.68 µM
same,CC50,SF-539; [4],> 100 µM
same,TGI,SF-539; read-out: TGI,17.1 µM
same,GI50,SF-539; read-out: pGI50 (converted),3.72 µM
same,CC50,SF-539; [5],> 100 µM
same,TGI,SF-539; read-out: pTGI (converted),17 µM
same,GI50,Malme-3M; read-out: GI50,1.52 µM
same,LC50,Malme-3M; read-out: LC50,> 100 µM
same,TGI,Malme-3M; read-out: TGI,21.8 µM
same,GI50,Malme-3M; read-out: pGI50 (converted),1.51 µM
same,LC50,Malme-3M; read-out: pLC50 (converted),> 100 µM
same,TGI,Malme-3M; read-out: pTGI (converted),21.9 µM
same,GI50,SK-MEL-2; read-out: GI50,2.1 µM
same,LC50 (concentration killing 50% of cells),SK-MEL-2; read-out: LC50,> 100 µM
same,TGI,SK-MEL-2; read-out: TGI,5.11 µM
same,GI50,SK-MEL-2; read-out: pGI50 (converted),2.09 µM
same,LC50 (concentration killing 50% of cells),SK-MEL-2; read-out: pLC50 (converted),> 100 µM
same,TGI,SK-MEL-2; read-out: pTGI (converted),5.13 µM
same,GI50,SK-MEL-28; read-out: GI50,4.25 µM
same,LC50,SK-MEL-28; read-out: LC50,> 100 µM
same,TGI,SK-MEL-28; read-out: TGI,> 100 µM
same,GI50,SK-MEL-28; read-out: pGI50 (converted),4.27 µM
same,LC50,SK-MEL-28; read-out: pLC50 (converted),> 100 µM
same,TGI,SK-MEL-28; read-out: pTGI,> 100 µM
same,GI50,[3]; read-out: GI50,2.17 µM
same,LC50 (50% lethal concentration),[3]; read-out: LC50,> 100 µM
same,TGI,[3]; read-out: TGI,9.02 µM
same,GI50,[3]; read-out: pGI50 (converted),2.19 µM
same,LC50 (50% lethal concentration),[3]; read-out: pLC50 (converted),> 100 µM
same,TGI,[3]; read-out: pTGI (converted),9.12 µM
same,GI50,SK-OV-3; read-out: GI50,2.92 µM
same,CC50,SK-OV-3; [4],> 100 µM
same,TGI,SK-OV-3; read-out: TGI,7.6 µM
same,GI50,SK-OV-3; read-out: pGI50 (converted),2.88 µM
same,CC50,SK-OV-3; [5],> 100 µM
same,TGI,SK-OV-3; read-out: pTGI (converted),7.59 µM
same,GI50,A498; read-out: GI50,1.73 µM
same,LC50,A498; read-out: LC50,> 100 µM
same,TGI,A498; read-out: TGI,5.46 µM
same,GI50,A498; read-out: pGI50 (converted),1.74 µM
same,LC50,A498; read-out: pLC50 (converted),> 100 µM
same,TGI,A498; read-out: pTGI (converted),5.5 µM
same,GI50,TK-10; read-out: GI50,6.75 µM
same,CC50,TK-10; [4],> 100 µM
same,TGI,TK-10; read-out: TGI,> 100 µM
same,GI50,TK-10; read-out: pGI50 (converted),6.76 µM
same,CC50,TK-10; [5],> 100 µM
same,TGI,TK-10; read-out: pTGI,> 100 µM
same,GI50,PC-3; read-out: GI50,1.38 µM
same,CC50,PC-3; [4],> 100 µM
same,TGI,PC-3; read-out: TGI,8.91 µM
same,GI50,PC-3; read-out: pGI50 (converted),1.38 µM
same,CC50,PC-3; [5],> 100 µM
same,TGI,PC-3; read-out: pTGI (converted),8.91 µM
same,GI50,BT-549; read-out: GI50,2.22 µM
same,CC50,BT-549; [4],> 100 µM
same,TGI,BT-549; read-out: TGI,7.66 µM
same,GI50,BT-549; read-out: pGI50 (converted),2.24 µM
same,CC50,BT-549; [5],> 100 µM
same,TGI,BT-549; read-out: pTGI (converted),7.59 µM
